# Laboratory results from patent US4472386A, “5-Fluoro-(β-uridine or 2'-deoxy-β-uridine) derivatives, a process for producing the same and a carcinostatic agent containing the same” (Toyama Chemical Co., Ltd., priority 1978, dated 1984).
# Where two headings read alike, the source gives them in different places.
# Experiments:
# [1] = tested on: Ehrlich ascites carcinoma; assay: Inhibition of Ehrlich solid tumor in mice, intraperitoneal administration (Table 1); format: in vivo, ddY mice; set-up: response vs control in vivo: dose or concentration left out as unconfirmed; conditions: for response vs control in vivo: day 14
# Description: (§1) 1. Experiment on the inhibition of Ehrlich solid tumor
# Ehrlich ascites carcinoma was subcutaneously inoculated into the right inguinal region of ddY mice (5 weeks old, male, 8 mice per group) with 3×10^6 cells per mouse.
# 24 Hours after the inoculation, a test drug suspended or dissolved in 5% HCO 60 (a product manufactured by Nikkol) was administered intraperitoneally successively once daily for 7 days. To the control group, the same quantity as above of 5% HCO 60 was intraperitoneally administered in the same manner. Fourteen days after the inoculation, the tumor was excised and weighed, from which the average tumor weight ratio between the test group and the control group (T/C) was determined.
# SLC-ddY mice = conditions: mouse, in vivo
# Text: (a) The test compound was suspended in 0.25% CMC solution and administered intraperitoneally to SLC-ddY mice (5 weeks old, male, 6 mice per group). The number of dead mice was counted over the subsequent three weeks.
# [2] = tested on: Sarcoma-180 ascites tumor; assay: Inhibition of Sarcoma-180 ascites tumor in mice, intravenous administration (Table 3); format: in vivo, ddY mice; conditions: for T/C (average tumor weight ratio between test group and control group): Sarcoma-180, day 10
# Description: 2. Experiment on the inhibition of Sarcoma-180 ascites tumor
# Sarcoma-180 ascites tumor was subcutaneously inoculated into the right inguinal region of ddY mice (5 weeks old, male, 8 mice per group) with 3×10^6 cells per mouse. Twenty four hours after the inoculation,a test drug dissolved in 10% polyethylene glycol was administered intravenously to the test group successively once daily for 7 days, while the same quantity as above of 10% polyethylene glycol was intravenously administered to the control group. Ten days after the inoculation, the tumor was excised and weighed, from which the average tumor weight ratio between the test group and the control group (T/C) was determined.
# [3] = tested on: Ehrlich ascites carcinoma; assay: Carcinostatic test, oral, ED values (Table 5); format: in vivo, ddY mice; conditions: Mus musculus, 336 h
# Description: Ehrlich ascites carcinoma was subcutaneously inoculated into the right inguinal region of ddY mice (5 weeks old, male, 8 mice per group) with 8×10^6 cells per mouse. Twenty four hours after the inoculation,5, 10, 20 or 40 mg/kg of a test drug suspended or dissolved in polyethylene glycol was administered orally to the test group successively once daily for 10 days, while the same quantity as above of 10% polyethylene glycol was administered orally to the control group. Fourteen days after the inoculation, the tumor was excised and weighed, from which the average tumor weight ratio between the test group and the control group (T/C) was calculated. ED value was determined by the least square method.
# [4] = Acute toxicity test (b), oral LD50 (Table 4); conditions: mouse, in vivo
# Description: (b) The test compound was suspended in 0.25% CMC solution and administered orally to SLC-ddY mice (5 weeks old, male, 6 mice per group). The number of dead mice was counted over the subsequent 3 weeks. LD50 value was calculated according to the method of Van der Waerden.
# [5] = tested on: Ehrlich ascites carcinoma; assay: Inhibition of Ehrlich solid tumor in mice, oral administration starting six days after inoculation (Table 2); format: in vivo, ddY mice; conditions: for T/C (average tumor weight ratio between test group and control group): day 21
# Description: as §1
# Ehrlich ascites carcinoma was subcutaneously inoculated into the inguinal region of ddY mice (5 weeks old, male, 8 mice per group) with 3×10^6 cells per mouse. Six days after the inoculation, a test drug dissolved or suspended in 0.5% CMC solution was administered orally to the test group successively once daily for 10 days, while the same quantity as above of 0.5% CMC solution was orally administered to the control group. Twenty one days after the inoculation, the tumor was excised and weighed, from which the average tumor weight ratio between the test group and the control group (T/C) was determined.
# [6] = 40 mg/kg i.p. once daily for 7 days
# [7] = Mus musculus, ip, 336 h, Ehrlich, read-out: T/C (average tumor weight ratio between test group and control group)
# [8] = 10 mg/kg i.v. once daily for 7 days
# [9] = 60 mg/kg orally once daily for 10 days
# [10] = 60 mg/kg orally once daily for 10 days from day 6, Ehrlich
# [11] = 5 mg/kg i.v. once daily for 7 days
# [12] = oral, 3 weeks, Van der Waerden method
Compound,"Body weight change [1, 6]","response vs control in vivo [1, 7]",other results
O=C(c1ccco1)n1c(=O)c(F)cn([C@H]2C[C@H](O)[C@@H](CO)O2)c1=O [compound 15],+7.9 g,39.1%,–
COc1cccc(OC)c1C(=O)n1c(=O)c(F)cn([C@H]2C[C@H](O)[C@@H](CO)O2)c1=O [compound 18],+7.8 g,41.5%,Number of dead mice (SLC-ddY mice): no dead mice
COc1cc(N)c(Cl)cc1C(=O)n1c(=O)c(F)cn([C@H]2C[C@H](O)[C@@H](CO)O2)c1=O [compound 10],+7.3 g,34.2%,–
O=C(c1ccccc1Cl)n1c(=O)c(F)cn([C@H]2C[C@H](O)[C@@H](CO)O2)c1=O [compound 7],+6.0 g,33.1%,–
O=C(c1cccc(Cl)c1)n1c(=O)c(F)cn([C@H]2C[C@H](O)[C@@H](CO)O2)c1=O [compound 11],+7.6 g,34.3%,Number of dead mice (SLC-ddY mice): no dead mice
O=C(c1ccc([N+](=O)[O-])cc1)n1c(=O)c(F)cn([C@H]2C[C@H](O)[C@@H](CO)O2)c1=O [compound 19],+5.9 g,41.5%,–
O=C(c1c(F)cccc1F)n1c(=O)c(F)cn([C@H]2C[C@H](O)[C@@H](CO)O2)c1=O [compound 29],+7.9 g,41.3%,–
O=C(CBr)Nc1ccc(C(=O)n2c(=O)c(F)cn([C@H]3C[C@H](O)[C@@H](CO)O3)c2=O)cc1 [compound 26],+2.3 g,35.3%,–
O=C(c1ccc(Br)o1)n1c(=O)c(F)cn([C@H]2C[C@H](O)[C@@H](CO)O2)c1=O [compound 24],+4.7 g,42.5%,–
O=C(c1cccc(C(F)(F)F)c1)n1c(=O)c(F)cn([C@H]2C[C@H](O)[C@@H](CO)O2)c1=O [compound 25],+5.3 g,43%,–
O=C(c1ccc(F)cc1)n1c(=O)c(F)cn([C@H]2C[C@H](O)[C@@H](CO)O2)c1=O [compound 2],+6.8 g,23.2%,"Body weight change [2, 8]: +4.1 g; No. of surviving mice/No. of total mice used [2, 8]: 8/8; T/C (average tumor weight ratio between test group and control group) [2, 8]: 46.2%; Number of dead mice (SLC-ddY mice): no dead mice; ED30 ([3]; oral once daily for 10 days, least square method, read-out: ED30): 11 mg/kg; ED40 ([3]; oral once daily for 10 days, least square method, read-out: ED40): 20 mg/kg; LD50 at 504 h ([4]; po): 2070 mg/kg; Body weight change [5, 9]: -0.4 g; T/C (average tumor weight ratio between test group and control group) [5, 10]: 36.8%"
CC(=O)OC[C@H]1O[C@@H](n2cc(F)c(=O)n(C(=O)c3ccc4c(c3)OCO4)c2=O)C[C@@H]1OC(C)=O [compound 30],+6.1 g,30.1%,–
"O=c1[nH]cc(F)c(=O)[nH]1 [5-Fu, 5-fluorouracil, reference compound]",–,–,"Body weight change [2, 11]: +4.0 g; No. of surviving mice/No. of total mice used [2, 11]: 8/8; T/C (average tumor weight ratio between test group and control group) [2, 11]: 59.7%; ED30 ([3]; po): 15 mg/kg; ED40 ([3]; po): 25 mg/kg; LD50 at 504 h [4, 12]: 259 mg/kg; Body weight change ([1]; 20 mg/kg i.p. once daily for 7 days): +4.1 g; response vs control in vivo at 20 mg/kg ([1]; Mus musculus, Ehrlich, ip, 336 h, read-out: T/C (average tumor weight ratio between test group and control group)): 49.9%; Body weight change ([5]; 30 mg/kg orally once daily for 10 days): -3.8 g; T/C (average tumor weight ratio between test group and control group) ([5]; 30 mg/kg orally once daily for 10 days from day 6, Ehrlich): 39.7%"
COC(=O)c1ccc(C(=O)n2c(=O)c(F)cn([C@H]3C[C@H](O)[C@@H](CO)O3)c2=O)cc1 [compound 12],+6.2 g,36.9%,–
CN(C)c1ccc(C(=O)n2c(=O)c(F)cn([C@H]3C[C@H](O)[C@@H](CO)O3)c2=O)cc1 [compound 21],+4.7 g,32.4%,"LD50 at 504 h [4, 12]: ≥ 2540 mg/kg"
O=C(c1ccccc1I)n1c(=O)c(F)cn([C@H]2C[C@H](O)[C@@H](CO)O2)c1=O [compound 8],+7.6 g,33.5%,–
Cc1ccsc1C(=O)n1c(=O)c(F)cn([C@H]2C[C@H](O)[C@@H](CO)O2)c1=O [compound 16],+6.4 g,40.7%,–
Cc1ccccc1C(=O)n1c(=O)c(F)cn([C@H]2C[C@H](O)[C@@H](CO)O2)c1=O [compound 6],+7.3 g,32.3%,–
O=C(CCl)Nc1cccc(C(=O)n2c(=O)c(F)cn([C@H]3C[C@H](O)[C@@H](CO)O3)c2=O)c1 [compound 4],+4.4 g,25.2%,–
O=C(c1cc(O)cc(O)c1)n1c(=O)c(F)cn([C@H]2C[C@H](O)[C@@H](CO)O2)c1=O [compound 17],+7.9 g,41%,–
O=C(CCl)Nc1ccc(C(=O)n2c(=O)c(F)cn([C@H]3C[C@H](O)[C@@H](CO)O3)c2=O)cc1 [compound 5],+4.8 g,27.5%,"Body weight change [5, 9]: -4.1 g; T/C (average tumor weight ratio between test group and control group) [5, 10]: 34.0%"
O=C(c1cc(Br)cs1)n1c(=O)c(F)cn([C@H]2C[C@H](O)[C@@H](CO)O2)c1=O [compound 23],+5.3 g,38.8%,–
N#Cc1ccc(C(=O)n2c(=O)c(F)cn([C@H]3C[C@H](O)[C@@H](CO)O3)c2=O)cc1 [compound 13],+7.2 g,36.9%,Number of dead mice (SLC-ddY mice): no dead mice
O=C(Nc1ccc(C(=O)n2c(=O)c(F)cn([C@H]3C[C@H](O)[C@@H](CO)O3)c2=O)cc1)C(Cl)Cl [compound 22],+6.5 g,41.6%,–
O=C(c1cccc2ccccc12)n1c(=O)c(F)cn([C@H]2C[C@H](O)[C@@H](CO)O2)c1=O [compound 9],+6.7 g,33.5%,–
O=C(c1ccccc1F)n1c(=O)c(F)cn([C@H]2C[C@H](O)[C@@H](CO)O2)c1=O [compound 20],+7.4 g,42.8%,–
O=Cc1ccc(C(=O)n2c(=O)c(F)cn([C@H]3C[C@H](O)[C@@H](CO)O3)c2=O)cc1 [compound 14],+7.1 g,38.1%,–
O=C(c1ccc(F)cc1F)n1c(=O)c(F)cn([C@H]2C[C@H](O)[C@@H](CO)O2)c1=O [compound 28],+5.9 g,21.7%,–
